# Source: patent publication US8426447B2, “Spiro-tricyclic ring compounds as beta-secretase modulators and methods of use” (Amgen Inc., priority 2008, dated 2013)
# Key:
# [1] = molecular target: T1, BACE1 (Homo sapiens, UniProt P56817); experiment: In Vitro Enzymatic BACE FRET (Fluorescence Resonance Energy Transfer) Assay; format: biochemical; details: read-out: BACE1 FRET assay
# Procedure, shortened: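 Buffer 0.05 M acetate pH 4.2 with 10% DMSO final and 100 uM genapol; reaction started with 50 nM FRET peptide substrate (fluorophore/quencher flanking BACE cleavage site), incubated one hour. Stopped with Tris buffer raising pH to neutrality, then fluorescence read.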
# [2] = molecular target: T1, BACE1; experiment: In Vitro BACE Cell-based Assay (HEK cell assay): Aβ40 in conditioned medium of cells stably expressing Amyloid Precursor Protein, sandwich ELISA; details: read-out: HEK cell assay
# Procedure, shortened: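 Conditioned medium Aβ40 by ELISA: pAb40 capture 3 h 4° C., biotin-6E10 detection 2 h 4° C., Streptavidin-Europium TRF. IC50 fitted from % control.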
# [3] = Table II, Aβ40, 24 h incubation
# T1 sequence (P56817 46-501, species assumed): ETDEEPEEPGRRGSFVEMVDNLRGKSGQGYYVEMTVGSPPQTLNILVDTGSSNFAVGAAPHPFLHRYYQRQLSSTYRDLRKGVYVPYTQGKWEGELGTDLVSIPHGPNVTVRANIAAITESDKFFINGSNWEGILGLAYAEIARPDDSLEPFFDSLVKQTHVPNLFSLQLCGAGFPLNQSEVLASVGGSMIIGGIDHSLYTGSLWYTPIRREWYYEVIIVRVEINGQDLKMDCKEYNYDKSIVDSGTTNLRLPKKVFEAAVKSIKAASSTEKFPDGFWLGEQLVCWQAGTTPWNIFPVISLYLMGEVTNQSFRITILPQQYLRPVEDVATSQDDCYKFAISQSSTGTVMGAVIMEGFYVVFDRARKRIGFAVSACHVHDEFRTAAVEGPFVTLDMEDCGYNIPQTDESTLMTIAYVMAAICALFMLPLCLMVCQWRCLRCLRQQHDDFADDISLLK
smiles,measurement,setting,value
NC1=N[C@]2(CO1)c1cc(C3=CCOCC3)ccc1Oc1ccc(-c3cccnc3)cc12 [compound 715],IC50,[1],< 0.1 µM
same,IC50,[2],< 0.1 µM
CC(=O)c1cccc(-c2ccc3c(c2)[C@]2(COC(N)=N2)c2cc(OCC(C)(C)C)ccc2O3)c1 [compound 191],IC50,"[1]; Table III, IC50's in uM ranges",< 0.1 µM
same,IC50,"[2]; Table III, IC50's in uM ranges",1 to 5 µM
NC1=N[C@@]2(CO1)c1cc(-c3cncnc3)ccc1Oc1ccc([C@@H]3CCOC3)cc12 [compound 420],IC50,[1],< 0.1 µM
same,IC50,[2]; HEK cells,0.1 to 1 µM
COC(C)(C)C#Cc1cnc2c(c1)[C@]1(COC(N)=N1)c1cc(-c3ccnc(F)c3)ccc1O2 [compound 687],IC50,[1],1 to 5 µM
same,IC50,[2],> 5 µM
"CC(C)(C)COc1ccc2c(c1)[C@]1(COC(N)=N1)c1cc(-c3cc(Cl)ccc3F)ccc1O2 [Example 75, (4S)-2′-(5-chloro-2-fluorophenyl)-7′-(2,2-dimethylpropoxy)spiro[1,3-oxazole-4,9′-xanthen]-2-amine]",IC50,[1]; Table II,< 0.1 µM
same,IC50,[2]; [3],0.1 to 1 µM
NC1=N[C@@]2(CO1)c1cc(Br)ccc1Oc1ccc(-c3cccnc3)cc12 [compound 876],IC50,"[1]; Table IV, class symbols",0.1 to 1 µM
same,IC50,"[2]; Table IV, class symbols",1 to 5 µM
NC1=N[C@]2(CO1)c1cc(OC[C@H](O)C(F)(F)F)ccc1Oc1ccc(-c3cccnc3)cc12 [compound 924],IC50,"[1]; Table IV, class symbols",< 0.1 µM
same,IC50,"[2]; Table IV, class symbols",0.1 to 1 µM
Cc1noc(C)c1-c1ccc2c(c1)[C@]1(COC(N)=N1)c1cc(OCC(C)(C)C)ccc1O2 [compound 189],IC50,"[1]; Table III, IC50's in uM ranges",0.1 to 1 µM
same,IC50,"[2]; Table III, IC50's in uM ranges",> 5 µM
CC(C)(C)C#Cc1ccc2c(c1)[C@]1(COC(N)=N1)c1nc(-c3cccnc3)ccc1O2 [compound 697],IC50,[1],0.1 to 1 µM
same,IC50,[2],1 to 5 µM
CCCOc1cc2c(cc1F)Oc1ccc(-c3cccnc3)cc1[C@]21COC(N)=N1 [compound 939],IC50,[1],0.1 to 1 µM
same,IC50,[2],0.1 to 1 µM
C[C@@H]1CN(c2cc(F)c3c(c2)[C@]2(COC(N)=N2)c2cc(-c4cncnc4)ccc2O3)C[C@H](C)O1 [compound 501],IC50,[1],< 0.1 µM
same,IC50,[2]; HEK cells,< 0.1 µM
CC(C)(C)COc1cnc2c(c1)[C@]1(COC(N)=N1)c1cc(-c3ccc(F)nc3)ccc1O2 [compound 470],IC50,[1],< 0.1 µM
same,IC50,[2]; HEK cells,< 0.1 µM
Cn1cc(-c2ccc3c(c2)[C@]2(COC(N)=N2)c2cc(-c4cccnc4F)ccc2O3)cn1 [compound 642],IC50,"[1]; Table IV, class symbols",< 0.1 µM
same,IC50,"[2]; Table IV, class symbols",< 0.1 µM
NC1=N[C@@]2(CO1)c1cc(-c3cncnc3)ccc1Oc1c(F)cc(OCC3CCOCC3)cc12 [compound 417],IC50,"[1]; in vitro BACE FRET enzyme assay, IC50 class symbols",< 0.1 µM
same,IC50,"[2]; HEK cell-based assay, Aβ40 in conditioned medium, IC50 class symbols",< 0.1 µM
COc1ccc(-c2ccc3c(c2)[C@]2(COC(N)=N2)c2cc(-c4cncnc4)ccc2O3)cc1 [compound 892],IC50,"[1]; Table IV, class symbols",< 0.1 µM
same,IC50,"[2]; Table IV, class symbols",< 0.1 µM
CC(C)(O)COc1ccc2c(c1)[C@]1(COC(N)=N1)c1cc(-c3cccnc3F)ccc1O2 [compound 906],IC50,"[1]; Table IV, class symbols",< 0.1 µM
same,IC50,"[2]; Table IV, class symbols",< 0.1 µM
CC1(COc2ccc3c(c2)[C@]2(COC(N)=N2)c2cc(Br)cnc2O3)COC1 [compound 164],IC50,"[1]; Table III, IC50's in uM ranges",0.1 to 1 µM
same,IC50,"[2]; Table III, IC50's in uM ranges",1 to 5 µM
CC(C)(C)C#Cc1ccc2c(c1)[C@@]1(COC(N)=N1)c1cc(C#CC(C)(C)C)cnc1O2 [compound 1000],IC50,[1],< 0.1 µM
same,IC50,[2],0.1 to 1 µM
CC(C)(C)COc1ccc2c(c1)[C@]1(COC(N)=N1)c1cc(C3CC3(C)C)ccc1O2 (stereo partly drawn) [compound 754],IC50,[1],< 0.1 µM
same,IC50,[2],0.1 to 1 µM
COc1cc(F)c2c(c1)[C@@]1(COC(N)=N1)c1cc(-c3cncnc3)ccc1O2 [compound 582],IC50,"[1]; Table IV, class symbols",1 to 5 µM
same,IC50,"[2]; Table IV, class symbols",> 5 µM
NC1=N[C@]2(CO1)c1cc(-c3cccnc3F)ccc1Oc1c(F)cccc12 [compound 574],IC50,"[1]; Table IV, class symbols",< 0.1 µM
same,IC50,"[2]; Table IV, class symbols",0.1 to 1 µM
NC1=N[C@@]2(CO1)c1cc(-c3cccnc3)ccc1Oc1cnc(N)cc12 [compound 446],IC50,[1],0.1 to 1 µM
same,IC50,[2]; HEK cells,0.1 to 1 µM
CC(C)(C)CCOc1nccc2c1[C@]1(COC(N)=N1)c1cc(-c3cccnc3)ccc1O2 [compound 932],IC50,[1],0.1 to 1 µM
same,IC50,[2],0.1 to 1 µM
CC(C)(C)COc1ccc2c(c1)[C@]1(COC(N)=N1)c1cc(C#CC3CC3)cnc1O2 [compound 45],IC50,[1]; Table II,< 0.1 µM
same,IC50,[2]; [3],0.1 to 1 µM
CC(C)(C)CCc1cnc2c(c1)[C@]1(COC(N)=N1)c1cc(-c3cncnc3)ccc1O2 [compound 472],IC50,[1],< 0.1 µM
same,IC50,[2]; HEK cells,< 0.1 µM
COC(C)(C)C#Cc1cc(F)c2c(c1)[C@@]1(COC(N)=N1)c1cc(-c3cncnc3)ccc1O2 [compound 674],IC50,[1],0.1 to 1 µM
same,IC50,[2],1 to 5 µM
CC1(COc2ccc3c(c2)[C@@]2(COC(N)=N2)c2cc(-c4cccc(F)c4)cnc2O3)COC1 [compound 774],IC50,[1],< 0.1 µM
same,IC50,[2],< 0.1 µM
